Measurements from paper PMC10720369 (Frontiers in Plant Science, 2023).

Tested on: ScAMT3;3
Conditions: labelled compound; 0-500 µM 15N-NH4+; 35-d-old N-starved plants; line 35S::ScAMT3;3 by results and Figure 4C (methods b28 say proScAMT3;3 line); residual qko uptake present; NH3 may be the transported

Compound: N [NH4+]
- Km: 271 µM
